The assay has as its target NaV1.7 (Homo sapiens (Human), UniProt Q15858). Put plainly: NaV1.7 IC50 of Table 1 (IonWorks Barracuda population patch clamp or ligand binding assay; table does not say which). Type of assay: cell-based. To be noted: HEK 293 cells expressing NaV1.7. As to the method: Ion Works Barracuda population patch clamp (PPC). PPC measurements were performed using an IonWorks Barracuda instrument (Molecular Devices Corporation, Union City, Calif.) using either PatchPlate™ PPC substrates (Molecular Devices Corporation) with 64 apertures per well. The ability to average currents from 64 recordings from each well greatly improves data consistency and recording success rates in the measurement of NaV1.7 mediated ionic currents. Calculated leak current was digitally subtracted from the total cell NaV1.7 current for each sample point acquired.
NaV1.7 currents were elicited by a voltage clamp protocol designed to bias the NaV1.7 channels to their inactivated state as follows. […] This was followed by a relatively brief hyperpolarization to −100 mv for 300 ms, then a 20 msec test pulse to −20 mV to elicit the NaV1.7 current used to measure the pharmacology of all test compounds. Compounds were incubated for 600 sec between the pre- and post-compound reads. […] The same solutions were used to record NaV1.5 currents, with the following voltage clamp protocol. NaV1.5 currents were elicited by a voltage clamp protocol designed to bias the NaV1.5 channels to their inactivated state as follows. […] This was followed by a relatively brief hyperpolarization to −100 mv for 30 ms, then a 20 msec test pulse to −10 mV to elicit the NaV1.5 current used to measure the pharmacology of all test compounds.
HEK 293 cells expressing NaV1.7 and NaV1.5 channels, were used (Essen Biosciences, Ann Arbor, Mich.). […] Cells were grown to 70% to 90% confluence in a flask and removed from the incubator (37° C., 5% CO2) 1 to 3 days after plating. Growth medium was aspirated from the culture flasks. […] Next a total of 2 mL TrypLE (Gibco) solution was added, and the flasks containing cells were sat for 3 min at RT, after which, the cells became visibly rounded and were easily dislodged from the bottom of the flask with a few brief taps on a solid surface. A total of 8 mL of media was added to the flask to inactivate the TrypLE, and the mixture was centrifuged at 910 rpm for 4 min. The cell supernatant was decanted, and the cell pellets were resuspended in 5-6 mL of external solution followed by gentle triturations using a 10 ml pipette, and transferred to a 15 ml conical tube and immediately brought to the IW Barracuda instrument.
Peak membrane currents were analyzed with IW Barracuda software and exported to Excel for further analysis. Concentration response curve fitting was performed with BMS in-house software. IC50 values were obtained by fits of the Hill equation to the average percent inhibition data plotted versus compound concentration. […] Results are reported in Table 1 (NaV1.7 Barra IC50 in nM and NaV1.5 Barra IC50 in nM).
hNaV1.7 binding affinities were determined with a filtration binding assay using purified membranes from HEK293 cells stably expressing hNaV1.7. HEK293 cells from a 10-stack cell culture flask (approximately 10^10 cells) were dissociated, frozen, and stored at −80° C. To prepare membranes, the frozen cell pellet was thawed and suspended in 6 ml hypotonic lysis buffer (50 mM HEPES, 0.1% mammalian protease inhibitor cocktail). 1 ml of resuspended cells was added to an additional 6 ml of lysis buffer and homogenized with 30 strokes of a tight pestle in a glass homogenizer. Homogenate was centrifuged at 1000×g for 10 minutes at 4° C. and the resulting supernatant was further centrifuged at 38,500×g for 60 minutes at 4° C. The resulting pellet was resuspended in binding buffer (50 mM HEPES, 130 mM NaCl, 5.4 mM KCl, 0.8 mM MgCl2, 5 mM glucose, pH 7.4) and needle homogenized with a 25 gauge needle. Protein concentration was determined with a BCA protein assay. Purified membranes were aliquoted, flash frozen in an ethyl alcohol dry ice bath, and stored at −80° C.

Each structure is given as a SMILES string.

NaV1.7, sequence (Q15858 whole entry): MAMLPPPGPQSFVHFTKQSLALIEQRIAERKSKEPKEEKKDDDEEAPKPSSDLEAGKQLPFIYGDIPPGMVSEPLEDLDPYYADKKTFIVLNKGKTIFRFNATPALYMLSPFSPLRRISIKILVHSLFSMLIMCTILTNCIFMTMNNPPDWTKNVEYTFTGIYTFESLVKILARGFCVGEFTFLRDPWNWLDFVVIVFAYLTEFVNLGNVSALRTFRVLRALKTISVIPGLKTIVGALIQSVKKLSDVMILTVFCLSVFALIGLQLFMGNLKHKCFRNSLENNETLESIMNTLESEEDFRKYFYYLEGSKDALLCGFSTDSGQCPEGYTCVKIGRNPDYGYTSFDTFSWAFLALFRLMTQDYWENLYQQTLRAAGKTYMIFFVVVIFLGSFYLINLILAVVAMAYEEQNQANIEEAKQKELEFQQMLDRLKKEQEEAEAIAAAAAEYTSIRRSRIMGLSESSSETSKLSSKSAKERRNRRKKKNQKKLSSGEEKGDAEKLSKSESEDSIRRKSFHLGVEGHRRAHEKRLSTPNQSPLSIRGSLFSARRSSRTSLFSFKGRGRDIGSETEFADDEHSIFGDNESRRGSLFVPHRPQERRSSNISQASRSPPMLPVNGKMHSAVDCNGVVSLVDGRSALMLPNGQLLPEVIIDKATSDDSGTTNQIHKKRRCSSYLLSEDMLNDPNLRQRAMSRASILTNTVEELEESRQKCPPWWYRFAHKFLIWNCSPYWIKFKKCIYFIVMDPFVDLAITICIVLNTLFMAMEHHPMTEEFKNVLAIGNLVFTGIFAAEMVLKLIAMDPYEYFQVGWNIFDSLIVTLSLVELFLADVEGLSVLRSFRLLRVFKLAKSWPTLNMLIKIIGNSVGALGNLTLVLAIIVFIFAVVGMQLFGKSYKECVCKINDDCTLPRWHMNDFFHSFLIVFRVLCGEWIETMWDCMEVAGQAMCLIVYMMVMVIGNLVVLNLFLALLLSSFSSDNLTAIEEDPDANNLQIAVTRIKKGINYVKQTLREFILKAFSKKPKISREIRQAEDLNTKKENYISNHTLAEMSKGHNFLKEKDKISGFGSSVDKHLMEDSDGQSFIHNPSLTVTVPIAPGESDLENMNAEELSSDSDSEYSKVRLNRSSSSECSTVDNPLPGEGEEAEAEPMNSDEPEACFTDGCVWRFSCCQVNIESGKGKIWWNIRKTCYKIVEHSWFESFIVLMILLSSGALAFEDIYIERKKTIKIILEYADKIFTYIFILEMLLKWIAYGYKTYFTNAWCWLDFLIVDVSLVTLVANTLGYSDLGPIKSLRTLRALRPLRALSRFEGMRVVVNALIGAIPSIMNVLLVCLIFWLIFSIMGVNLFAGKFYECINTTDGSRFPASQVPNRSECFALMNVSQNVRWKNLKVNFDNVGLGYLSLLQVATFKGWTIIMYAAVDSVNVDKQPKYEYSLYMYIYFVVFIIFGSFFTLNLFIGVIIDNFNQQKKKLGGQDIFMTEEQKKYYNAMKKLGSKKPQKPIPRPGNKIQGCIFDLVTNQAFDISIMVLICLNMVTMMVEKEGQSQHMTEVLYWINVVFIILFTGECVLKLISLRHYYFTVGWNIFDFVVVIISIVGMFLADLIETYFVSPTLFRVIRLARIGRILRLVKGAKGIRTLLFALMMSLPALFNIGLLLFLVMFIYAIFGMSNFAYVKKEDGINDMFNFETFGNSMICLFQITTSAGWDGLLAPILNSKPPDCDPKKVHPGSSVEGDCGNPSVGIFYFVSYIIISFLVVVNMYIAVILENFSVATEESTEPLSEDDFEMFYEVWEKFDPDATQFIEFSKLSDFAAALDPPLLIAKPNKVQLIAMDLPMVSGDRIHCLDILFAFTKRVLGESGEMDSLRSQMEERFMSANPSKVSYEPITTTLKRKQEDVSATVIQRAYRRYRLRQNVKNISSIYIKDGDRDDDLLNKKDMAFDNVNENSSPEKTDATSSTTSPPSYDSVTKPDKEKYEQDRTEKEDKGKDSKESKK

The term IC50 denotes the concentration at which inhibition is half-maximal. `O=S(=O)(Nc1nccs1)c1cc(Cl)c(NCC2(CN3CCOCC3)CC2)cc1F` [Example 8, 5-Chloro-2-fluoro-4-(((1-(morpholinomethyl)cyclopropyl)methyl)amino)-N-(thiazol-2-yl)benzenesulfonamide] gave a half-maximal inhibitory concentration (IC50) of 0.181 µM.

Take `NC1(CCNc2cc(F)c(S(=O)(=O)Nc3nccs3)cc2Cl)CCCCC1` [Example 29, 4-((2-(1-Aminocyclohexyl)ethyl)amino)-5-chloro-2-fluoro-N-(thiazol-2-yl)benzenesulfonamide]: the IC50 came out at 0.074 µM.

`CNC1CCC(COc2cc(F)c(S(=O)(=O)Nc3ncns3)cc2F)(Cc2ccc(Cl)c(F)c2)CC1` (centres unmarked) [Example 63, 4-((1-(4-Chloro-3-fluorobenzyl)-4-(methylamino)cyclohexyl)methoxy)-2,5-difluoro-N-(1,2,4-thiadiazol-5-yl)benzenesulfonamide] showed an IC50 of 0.068 µM.

On to `O=S(=O)(Nc1nccs1)c1cc(Cl)c(NCCC2CCCCN2O)cc1F` (centres unmarked) [Example 75, 5-chloro-2-fluoro-4-((2-(1-hydroxypiperidin-2-yl)ethyl)amino)-N-(thiazol-2-yl)benzenesulfonamide], for which the IC50 is 0.041 µM. Against the preceding compound, the IC50 is about 1.7-fold lower.

For the compound `NC1CCC(CCOc2cc(F)c(S(=O)(=O)Nc3ncns3)cc2F)(c2ccccc2)CC1` (single isomer, unassigned) [Example 49, 4-(2-(4-amino-1-phenylcyclohexyl)ethoxy)-2,5-difluoro-N-(1,2,4-thiadiazol-5-yl)benzenesulfonamide], the IC50 was determined as 0.015 µM. Compared with the last compound, the IC50 is about 2.7-fold lower.

The compound `O=S(=O)(Nc1nccs1)c1cc(Cl)c(NCC2(CN3CCCC3)CC2)cc1F` [Example 12, 5-Chloro-2-fluoro-4-(((1-(pyrrolidin-1-ylmethyl)cyclopropyl)methyl)amino)-N-(thiazol-2-yl)benzenesulfonamide] yielded a concentration for half-maximal inhibition (IC50) of 0.011 µM.

Regarding `CC1CC(C)(C)C(CNc2cc(F)c(S(=O)(=O)Nc3nccs3)cc2Cl)C1N` (centres unmarked) [Example 30, 4-(((5-Amino-2,2,4-trimethylcyclopentyl)methyl)amino)-5-chloro-2-fluoro-N-(thiazol-2-yl)benzenesulfonamide], the concentration for half-maximal inhibition (IC50) stood at 0.012 µM. This IC50 and that of the compound before are within 1.5-fold of each other.

In the case of `O=S(=O)(Nc1nccs1)c1cc(Cl)c(NCCC2CCCO2)cc1F` (centres unmarked) [Example 39, 5-Chloro-2-fluoro-4-((2-(tetrahydrofuran-2-yl)ethyl)amino)-N-(thiazol-2-yl)benzenesulfonamide], the IC50 was 0.221 µM.

As for `CN1CCN(C2CCC(CNc3cc(F)c(S(=O)(=O)Nc4nccs4)cc3Cl)CC2)CC1` (centres unmarked) [Example 27, 5-Chloro-2-fluoro-4-(((4-(4-methylpiperazin-1-yl)cyclohexyl)methyl)amino)-N-(thiazol-2-yl)benzenesulfonamide], the half-inhibitory concentration (IC50) is 0.04 µM.

The compound `O=S(=O)(Nc1nccs1)c1cc(Cl)c(N2CCCC(C3CCNCC3)C2)cc1F` (centres unmarked) [Example 66, 4-([3,4′-bipiperidin]-1-yl)-5-chloro-2-fluoro-N-(thiazol-2-yl)benzenesulfonamide] gave an IC50 of 0.291 µM.

In the case of `COCCN1CCCC1CNc1cc(F)c(S(=O)(=O)Nc2nccs2)cc1Cl` (centres unmarked) [Example 68, 5-chloro-2-fluoro-4-(((1-(2-methoxyethyl)pyrrolidin-2-yl)methyl)amino)-N-(thiazol-2-yl)benzenesulfonamide], the half-maximal inhibitory concentration (IC50) stood at 0.138 µM.

`COCC1CCN(c2cc(F)c(S(=O)(=O)Nc3nccs3)cc2Cl)C1` (centres unmarked) [Example 69, 5-chloro-2-fluoro-4-(3-(methoxymethyl)pyrrolidin-1-yl)-N-(thiazol-2-yl)benzenesulfonamide] came in with an IC50 of 0.568 µM.

`CNC1CCC(CNc2cc(F)c(S(=O)(=O)Nc3nccs3)cc2Cl)CC1` (centres unmarked) [Example 23, 5-Chloro-4-(((4-(methylamino)cyclohexyl)methyl)amino)-2-fluoro-N-(thiazol-2-yl)benzenesulfonamide] displayed an IC50 of 0.016 µM.

For the compound `CC1(CCOc2cc(F)c(S(=O)(=O)Nc3ncns3)cc2F)CCC(N)CC1` (single isomer, unassigned) [Example 56, 4-(2-((1s,4s)-4-Amino-1-methylcyclohexyl)ethoxy)-2,5-difluoro-N-(1,2,4-thiadiazol-5-yl)benzenesulfonamide], the IC50 was 0.078 µM.

Compound `CN1C(C)(C)CC(Nc2cc(F)c(S(=O)(=O)Nc3nccs3)cc2Cl)CC1(C)C` [Example 42, 5-Chloro-2-fluoro-4-((1,2,2,6,6-pentamethylpiperidin-4-yl)amino)-N-(thiazol-2-yl)benzenesulfonamide] displayed a half-inhibitory concentration (IC50) of 0.286 µM. Against the preceding compound, the IC50 is about 3.7-fold higher.

The compound `O=S(=O)(Nc1ncns1)c1cc(F)c(OCCC2(c3ccc(Cl)cc3)CCNCC2)cc1F` [Example 44, 4-(2-(4-(4-Chlorophenyl)piperidin-4-yl)ethoxy)-2,5-difluoro-N-(1,2,4-thiadiazol-5-yl)benzenesulfonamide] showed an IC50 of 0.124 µM.

The compound `O=S(=O)(Nc1ncns1)c1cc(F)c(OCCC2(c3ccccc3)CCC(O)CC2)cc1F` (centres unmarked) [Example 48, 2,5-Difluoro-4-(2-(4-hydroxy-1-phenylcyclohexyl)ethoxy)-N-(1,2,4-thiadiazol-5-yl)benzenesulfonamide] registered an IC50 of 0.117 µM.

Regarding `O=S(=O)(Nc1nccs1)c1cc(Cl)c(NCC2CCC(N3CCOCC3)CC2)cc1F` (centres unmarked) [Example 26, 5-Chloro-2-fluoro-4-(((4-morpholinocyclohexyl)methyl)amino)-N-(thiazol-2-yl)benzenesulfonamide], the concentration for half-maximal inhibition (IC50) was determined as 0.027 µM.

Turning to `O=S(=O)(Nc1nccs1)c1cc(Cl)c(N[C@H]2CC[C@@H](O)CC2)cc1F` [Example 36, 5-Chloro-2-fluoro-4-(((1s,4s)-4-hydroxycyclohexyl)amino)-N-(thiazol-2-yl)benzenesulfonamide], the IC50 is 0.21 µM. This IC50 lies about 7.8-fold higher than the previous one.

Compound `O=S(=O)(Nc1nccs1)c1cc(Cl)c(NCCC2CCCNC2)cc1F` (centres unmarked) [Example 2, 5-Chloro-2-fluoro-4-((2-(piperidin-3-yl)ethyl)amino)-N-(thiazol-2-yl)benzenesulfonamide] yielded a half-maximal inhibitory concentration (IC50) of 0.012 µM.

Values taken from patent US10836758B2, “Acyl sulfonamide NaV1.7 inhibitors” (BRISTOL-MYERS SQUIBB COMPANY, priority 2016, dated 2020).
